In patent US12643906B2, “Fused aza-heterocyclic amide compound and use thereof” (CSPC ZHONGQI PHARMACEUTICAL TECHNOLOGY (SHIJIAZHUANG) CO., …, priority 2020, dated 2026):

What was measured:
[1] = target: T1, Ba/F3 LMNA-NTRK1 (Homo sapiens, UniProt P04629); assay: In vitro cell proliferation inhibition (MTT); type: cell-based, murine; settings: 72 h, read-out: IC50 Ba/F3 LMNA-NTRK1
T1 construct: fused on or other part: P02545 (Prelamin-A/C)
Method: (§1) Cells in the logarithmic growth phase were harvested and counted using a […]. The cell suspension with a certain density was pipetted uniformly and seeded into a 96-well plate with each well of 100 μL, and shaken to make the cells uniformly disperse into the wells. 100 μL of compound solution with certain concentration gradient was added into each well, and 3 duplicate wells were set for each concentration. The plate was cultured in a CO2 incubator at 37° C. for 72 h. 20 μL of MTT working solution (5 mg/mL) was added into each well, and the plate was placed at 37° C. for 4 h, and centrifuged at 1000 rpm for 5 min by a plate centrifuge. After 180 μL of culture medium was discarded, the plate was added with 150 μL of DMSO, and mixed well with a microplate shaker, the plate bottom was wiped, and optical density (OD) at 550 nm was detected with a microplate reader.

[2] = target: T2, Ba/F3 LMNA-NTRK1-G595R (Homo sapiens, UniProt P04629, G595R, cells depend on it); assay: In vitro cell proliferation inhibition (MTT); type: cell-based, murine; settings: 72 h, read-out: IC50 Ba/F3 LMNA-NTRK1-G595R
T2 construct: fused on or other part: P02545 (Prelamin-A/C)
Method: as §1

[3] = target: T3, Ba/F3 LMNA-NTRK1-G667C (Homo sapiens, UniProt P04629, G667C, cells depend on it); assay: In vitro cell proliferation inhibition (MTT); type: cell-based, murine; settings: 72 h, read-out: IC50 Ba/F3 LMNA-NTRK1-G667C
T3 construct: fused on or other part: P02545 (Prelamin-A/C)
Method: as §1

[4] = target: T4, Ba/F3 ETV6-NTRK2 (Homo sapiens, UniProt Q16620); assay: In vitro cell proliferation inhibition (MTT); type: cell-based, murine; settings: 72 h, read-out: IC50 Ba/F3 ETV6-NTRK2
T4 construct: fused on or other part: P41212 (Transcription factor ETV6)
Method: as §1

[5] = target: T5, Ba/F3 ETV6-NTRK3-G623R (Homo sapiens, UniProt Q16288, G623R, cells depend on it); assay: In vitro cell proliferation inhibition (MTT); type: cell-based, murine; settings: 72 h, read-out: IC50 Ba/F3 ETV6-NTRK3-G623R
T5 construct: fused on or other part: P41212 (Transcription factor ETV6)
Method: as §1

[6] = test system: TRK, p-TRK, p-PLCγ1, p-AKT in Ba/F3 LMNA-NTRK1-G595R tumor tissues; assay: In vivo mechanism study, western blot of tumor tissues; parameters: species or system NuNu mice; settings: 100 mg/kg gavage, tumor taken 0.25-24 h
Method: A total of 3 mice in the control group were selected, and tumor tissues were taken and cryopreserved 4 h after the administration of the vehicle. The compound No. 4 of the present disclosure was administered to other groups at 100 mg/kg, and tumor tissues was taken at 0.25 h, 1 h, 4 h, 8 h, 12 h and 24 h for cryopreservation.
A certain mass of tumor tissue was taken and added into a corresponding volume of protein lysate (RIPA lysate (Thermo Fisher, Cat. No. 89900): protease inhibitor (cOmplete, Mini, EDTA-free, EASYpack; Roche, Cat. No. 04693159001): phosphatase inhibitor (PhosStop, EASY pack; Roche, Cat. No. 04906837001)=8:1:1), homogenized and lysed in ice bath for 30 min. The mixture was subjected to high-speed centrifugation at low temperature, and then the supernatant was taken for BCA protein quantification (procedure according to the BCA protein quantification kit (Qiagen, Cat. No. PA115-01)). Finally, after the protein concentration was adjusted to be uniform by lysate, loading buffer was added, and the mixture was boiled at 100° C. for 10 min.
4-20% of 10-well prefabricated gel was adopted; the sample loading amount was 100 μg; 140 V electrophoresis was performed for 1-1.5 h; the 300 mA wet-transfer was performed for 1.5-2 h; the membrane was blocked with 5% BSA for 2-3 h; incubating with primary antibody overnight at 4° C. […]

[7] = target: T6, TRKC(G696A) (Homo sapiens, UniProt Q16288, G696A); assay: HTRF kinase inhibition assay, TRKC(G696A); type: biochemical
T6 construct: purchased Bioduro
Method: (§2) The compound to be tested with a certain concentration gradient and an enzyme solution were successively added into a plate (kinase buffer (1× kinase buffer (Cisbio, Cat #62EZBFDD), pH 7.5; 5 mM MgCl2, 1 mM DTT) was added into negative control wells), and the compound plate was centrifuged at 1000 rpm for 30 seconds. The plate was sealed and incubated in a Constant Temperature Incubator at 25° C. for 30 min. A substrate solution containing TK-Sub-biotin (Cisbio, Cat #61TKOBL) and ATP (Sigma, Cat #R0441) was prepared, the substrate solution was added into a 384-well plate, and the plate was centrifuged at 1000 rpm for 30 seconds. The plate was sealed and incubated in a Constant Temperature Incubator at 25° C. for 60 min.
(§3) TK antibody and XL665 were diluted, mixed and added into the assay plate, and the plate was centrifuged at 1000 rpm for 30 seconds. The plate was sealed and incubated in a Constant Temperature incubator Incubator at 25° C. for 60 min. The assay plate was placed on an Envision reader for reading.
(§4) Data were fitted in XLFit excel add-in version 5.4.0.8 to obtain IC50 values.

[8] = target: T7, TRKA(G667C) (Homo sapiens, UniProt P04629, G667C); assay: HTRF kinase inhibition assay, TRKA(G667C); type: biochemical
T7 construct: purchased signalchem
Method: as §2
as §3, with “reading. (HTRF 665/615 ratio: signal value at 665 nm/signal value at 615 nm) Inhibition=(rationegative control well−ratiocompound well)/(rationegative control well−ratioenzyme-free control well)×100% 1.3 Data Analysis and Curve Fitting” for “reading.”
as §4

[9] = target: T8, TRKA (Homo sapiens, UniProt P04629); assay: HTRF kinase inhibition assay, TRKA; type: biochemical
T8 construct: purchased Bioduro
Method: as §2
as §3, with “reading. (HTRF 665/615 ratio: signal value at 665 nm/signal value at 615 nm) Inhibition=(rationegative control well−ratiocompound well)/(rationegative control well−ratioenzyme-free control well)×100% 1.3 Data Analysis and Curve Fitting” for “reading.”
as §4

SMILES: O=C(Nc1ccc(N2CCN(C(=O)CO)CC2)cc1)c1cnn2ccc(N3C[C@@H](F)C[C@@H]3c3cc(F)ccc3F)nc12 [Compound 4, 5-((2R,4S)-2-(2,5-difluorophenyl)-4-fluoropyrrolidin-1-yl)-N-(4-(4-(2-hydroxyacetyl)piperazin-1-yl)phenyl)pyrazolo[1,5-a]pyrimidine-3-carboxamide]
- GI50 [1]: 0.729 nM
- GI50 [2]: 0.166 nM
- GI50 [3]: 2.21 nM
- GI50 [4]: 1.77 nM
- GI50 [5]: 0.674 nM
- phosphorylation of p-PLCγ1/PLCγ1 and p-AKT/AKT in tumor tissues [6]: effectively inhibit
- protein level of TRK and p-TRK in tumor tissues [6]: significantly reduce
- IC50 [7]: 0.383 nM
- IC50 [8]: 0.183 nM
- IC50 [9]: 0.236 nM
